Experimental data taken from article PMC7181660, “A novel specific PERK activator reduces toxicity and extends survival in Huntington's disease models” (Scientific Reports, 2020).

What was measured:
Assay in all cases: biochemical
Format in all cases: biochemical
[1] = target: panel of 391 kinases (Homo sapiens, UniProt O14757); conditions: CHK1, MK-28 1 µM, ATP 1 µM
[2] = target: panel of 391 kinases (Homo sapiens, UniProt O75582); conditions: MSK1/RPS6KA5, MK-28 1 µM, ATP 1 µM
[3] = target: panel of 391 kinases (Homo sapiens, UniProt O94806); conditions: PKCnu/PRKD3, MK-28 1 µM, ATP 1 µM
[4] = target: panel of 391 kinases (Homo sapiens, UniProt P00519); conditions: ABL1, MK-28 1 µM, ATP 1 µM
[5] = target: panel of 391 kinases (Homo sapiens, UniProt P00533); conditions: EGFR, MK-28 1 µM, ATP 1 µM
[6] = target: panel of 391 kinases (Homo sapiens, UniProt P04049); conditions: RAF1, MK-28 1 µM, ATP 1 µM
[7] = target: panel of 391 kinases (Homo sapiens, UniProt P05129); conditions: PKCg, MK-28 1 µM, ATP 1 µM
[8] = target: panel of 391 kinases (Homo sapiens, UniProt P07333); conditions: FMS, MK-28 1 µM, ATP 1 µM
[9] = target: panel of 391 kinases (Homo sapiens, UniProt P08922); conditions: ROS/ROS1, MK-28 1 µM, ATP 1 µM
[10] = target: panel of 391 kinases (Homo sapiens, UniProt P09769); conditions: FGR, MK-28 1 µM, ATP 1 µM
[11] = target: panel of 391 kinases (Homo sapiens, UniProt P45983); conditions: JNK1, MK-28 1 µM, ATP 1 µM
[12] = target: panel of 391 kinases (Homo sapiens, UniProt P49674); conditions: CK1epsilon, MK-28 1 µM, ATP 1 µM
[13] = target: panel of 391 kinases (Homo sapiens, UniProt Q00537); conditions: CDK17/cyclin Y (PCTK2), MK-28 1 µM, ATP 1 µM
[14] = target: panel of 391 kinases (Homo sapiens, UniProt Q04912); conditions: RON/MST1R, MK-28 1 µM, ATP 1 µM
[15] = target: panel of 391 kinases (Homo sapiens, UniProt Q12851); conditions: GCK/MAP4K2, MK-28 1 µM, ATP 1 µM
[16] = target: panel of 391 kinases (Homo sapiens, UniProt Q13554); conditions: CAMK2b, MK-28 1 µM, ATP 1 µM
[17] = target: panel of 391 kinases (Homo sapiens, UniProt Q13976); conditions: PKG1a, MK-28 1 µM, ATP 1 µM
[18] = target: panel of 391 kinases (Homo sapiens, UniProt Q5TCY1); conditions: TTBK1, MK-28 1 µM, ATP 1 µM
[19] = target: panel of 391 kinases (Homo sapiens, UniProt Q8IVT5); conditions: KSR1, MK-28 1 µM, ATP 1 µM
[20] = target: panel of 391 kinases (Homo sapiens, UniProt Q92630); conditions: DYRK2, MK-28 1 µM, ATP 1 µM
[21] = target: panel of 391 kinases (Homo sapiens, UniProt Q96KB5); conditions: PBK/TOPK, MK-28 1 µM, ATP 1 µM
[22] = target: panel of 391 kinases (Homo sapiens, UniProt Q99759); conditions: MEKK3, MK-28 1 µM, ATP 1 µM
[23] = target: panel of 391 kinases (Homo sapiens, UniProt Q9H093); conditions: SNARK/NUAK2, MK-28 1 µM, ATP 1 µM
[24] = target: panel of 391 kinases (Homo sapiens, UniProt Q9HAZ1); conditions: CLK4, MK-28 1 µM, ATP 1 µM
[25] = target: panel of 391 kinases (Homo sapiens, UniProt Q9P1W9); conditions: PIM2, MK-28 1 µM, ATP 1 µM
[26] = target: panel of 391 kinases (Homo sapiens, UniProt Q9Y6E0); conditions: MST3/STK24, MK-28 1 µM, ATP 1 µM
[27] = read-out: % Enzyme Activity (relative to DMSO controls)

CN(/N=C\c1ccc(O)c(O)c1)c1nc(-c2ccccc2)cc(-c2ccccc2)n1 [MK-28]
% Enzyme Activity (relative to DMSO controls) [1]: 141.74% | remaining activity at 1 µM [1, 27]: 150% | % Enzyme Activity (relative to DMSO controls) [2]: 97.92% | remaining activity at 1 µM [2, 27]: 98.4% | % Enzyme Activity (relative to DMSO controls) [3]: 97.83% | remaining activity at 1 µM [3, 27]: 98.1% | % Enzyme Activity (relative to DMSO controls) [4]: 94.94% | remaining activity at 1 µM [4, 27]: 98.9% | % Enzyme Activity (relative to DMSO controls) [5]: 102.64% | remaining activity at 1 µM [5, 27]: 104% | % Enzyme Activity (relative to DMSO controls) [6]: 93.95% | remaining activity at 1 µM [6, 27]: 94.3% | % Enzyme Activity (relative to DMSO controls) [7]: 101.88% | remaining activity at 1 µM [7, 27]: 104% | % Enzyme Activity (relative to DMSO controls) [8]: 101.26% | remaining activity at 1 µM [8, 27]: 102% | % Enzyme Activity (relative to DMSO controls) [9]: 99.57% | remaining activity at 1 µM [9, 27]: 100% | % Enzyme Activity (relative to DMSO controls) [10]: 99.92% | remaining activity at 1 µM [10, 27]: 100% | % Enzyme Activity (relative to DMSO controls) [11]: 98.63% | remaining activity at 1 µM [11, 27]: 99.6% | % Enzyme Activity (relative to DMSO controls) [12]: 82.77% | remaining activity at 1 µM [12, 27]: 83.4% | % Enzyme Activity (relative to DMSO controls) [13]: 104.03% | remaining activity at 1 µM [13, 27]: 109% | % Enzyme Activity (relative to DMSO controls) [14]: 102.49% | remaining activity at 1 µM [14, 27]: 104% | % Enzyme Activity (relative to DMSO controls) [15]: 97.18% | remaining activity at 1 µM [15, 27]: 97.2% | % Enzyme Activity (relative to DMSO controls) [16]: 93.40% | remaining activity at 1 µM [16, 27]: 98% | % Enzyme Activity (relative to DMSO controls) [17]: 86.31% | remaining activity at 1 µM [17, 27]: 89% | % Enzyme Activity (relative to DMSO controls) [18]: 93.65% | remaining activity at 1 µM [18, 27]: 99% | % Enzyme Activity (relative to DMSO controls) [19]: 97.81% | remaining activity at 1 µM [19, 27]: 99.7% | % Enzyme Activity (relative to DMSO controls) [20]: 100.55% | remaining activity at 1 µM [20, 27]: 101% | % Enzyme Activity (relative to DMSO controls) [21]: 93.64% | remaining activity at 1 µM [21, 27]: 94.2% | % Enzyme Activity (relative to DMSO controls) [22]: 87.80% | remaining activity at 1 µM [22, 27]: 93.8% | % Enzyme Activity (relative to DMSO controls) [23]: 94.11% | remaining activity at 1 µM [23, 27]: 95.6% | % Enzyme Activity (relative to DMSO controls) [24]: 105.55% | remaining activity at 1 µM [24, 27]: 109% | % Enzyme Activity (relative to DMSO controls) [25]: 99.13% | remaining activity at 1 µM [25, 27]: 102% | % Enzyme Activity (relative to DMSO controls) [26]: 121.45% | remaining activity at 1 µM [26, 27]: 122%
